Data from patent US20030077740A1, “Presenilin/Crk binding polypeptides (PCBP) and methods of use thereof” (priority 2001, published 2003).
One block for each molecule: values may come before it. Residues, ends and D or L forms follow the SMILES beside them. *: point of attachment. Cbz = O=C(OCc1ccccc1)*

Key:
[1] = system: APP695/PBP cells; assay: protease inhibitors on APP secretion and intracellular accumulation; format: cell-based, rat
Protocol: Cells and transfection: Neuronal cell line B103 (Schubert et al. (1974) Nature, 249, 224-227) was grown in Dulbecco's modified Eagle's medium (DMEM) supplemented with 10% heat-inactivated fetal bovine serum (FBS). B103 cells were transfected with APP695 using G418 selection (Schubert et al. (1989) Neuron, 3: 689-694) and with various plasmids by Lepfectamin2000 (GIBCO; NJ, USA) using puromycin selection for PBP or hygromycin for PS1, respectively. The stably transfected cells were subsequently cloned and screened for protein expression by western blot analysis.
Western blotting, metabolic labeling and immunoprecipitation: For western blotting, cells were washed twice with ice-cold PBS and lysed in lysis buffer (1% Triton, 50 mM Hepes pH 7.5, 50 mM NaCl, 5 mM EDTA, 1 mM Na3VO4, 50 mM NaF, 10 mM Na4P2O7, plus a mixture of protease inhibitors (Complete Mini; Roche, Ind., USA). Protein concentrations were determined by Coomassie Plus (Pierce; IL, USA). The same amount of protein from each sample was separated on Novex pre-cast polyacrylamide gels (Invitrogen; CA, USA), and transferred to Immobulin membranes (Millipore; MA, USA). The membranes were blocked with 5% non-fat milk in Tris-buffered saline for 1 hour at room temperature. Following overnight incubation at 4° C. with primary antibodies, the antigens are detected with horseradish peroxidase-conjugated secondary antibodies (Bio-Rad; CA, USA; 1:20,000), an ECL kit (Amersham; NJ, USA), and exposed to films. For pulse-chase experiments, cells were grown to 80% confluency and incubated in methionine-free DMEM for 90 min. Cells were labeled with [^35]S-methionine (400 μCi/ml in methionine-free DMEM plus 5% dialyzed FBS) for 10 min at 37° C., and the medium was replaced with serum-free DMEM medium plus Ni-supplement (Sigma Inc.; MI, USA). The media were collected and cells were lysed after different time periods. Protein concentrations were determined and the same amounts of proteins were immunoprecipitated with antibodies at 4° C. overnight 25 μl of anti-mouse IgG agarose (Roche) was then added to each sample and incubated at 4° C. for 2 hours on a rocker platform. The immunoprecipitates were collected by centrifugation and washed 4 times with the washing buffer (0.1% Triton, 20 mM Hepes, 150 mM NaCl, 10% glycerol). The agarose beads were resuspended in 30 μl SDS-PAGE sample buffer boiled for 3 min to release the proteins. After 2 min of centrifugation, the supernatants were separated on 8% Tri-glycine gels. The gels were dried and subjected to autoradiography and quantitated by NIH image.
To independently verify the data on APP degradation, the effect of two protease inhibitors, leupeptin and MG132, on the secretion and the intracellular accumulation of APP was studied. Leupeptin is thought to inhibit lysosomal proteases, whereas MG132 is thought to inhibit ER membrane protein degradation through the ubiquitin-proteasome pathway (Soriano et al. (1999) J. Biol. Chem., 274: 32295-32300).

[2] = system: B103 (APP695) cells; assay: APP secretion by transfected B103 (APP695) cells, Western blotting; format: cell-based, rat; conditions: overexpression of the protein
[3] = target: T1, large hydrophilic loop of PS1 (Homo sapiens, UniProt P49768); assay: co-immunoprecipitation in 293T cells, PS1 loop; format: binding; conditions: immunoprecipitation with anti-TAG, 48 hrs after transfection, PS1-FLAG loop
T1 construct: and a large hydrophilic loop (amino acids 263-407); expressed in transfected cells; host or cells: 293T human kidney cells, pCIS2 expression vector
Protocol: To confirm the yeast two-hybrid data, the interaction between PBP and PSs was assayed in mammalian cells by immunoprecipitation. Human kidney 293-T cells, and monkey kidney COS-7 cells were cultured in Dulbecco's modified Eagle's medium supplemented with 10% fetal calf serum at 37° C. in a 10% CO2 atmosphere. A nine-amino acid TAG epitope ([…]) (SEQ ID NO:6) was incorporated in-frame at the 3′ end of the PBP cDNA (PBP-TAG), and an eight amino acid FLAG epitope ([…]) (SEQ ID NO:7) was attached in frame at the 5′ end of the large hydrophilic loop of PS1 cDNA and at the 3′ end of full length PS1 cDNA as described previously (Kimura, H., Proc. Natl. Acad. Sci. (USA), 90:2165-2169 (1993)). The resulting fragments were inserted into the pCIS2 expression vector (Genentech, San Francisco, Calif.) for transient or constitutive expression. […]
For immunoprecipitation of the large hydrophilic loop of PSs or Crk with PBP, cells were lysed in RIPA buffer (100 mM NaCl, 0.5% NP-40, 0.5% DOC, 0.1% SDS, 50 mM Tris, pH 7.5, 1 mM PMSF and 1 μg/ml aprotinin, 1 μg/l leupeptin) on ice for 30 min. […] The bound antibodies were detected by the ECL-plus chemiluminescence system (Amersham, Arlington Heights, Ill.).

[4] = target: T2, PS1 (Homo sapiens, UniProt P49768); assay: yeast two-hybrid interaction with PS1; format: binding; conditions: yeast two-hybrid assay
T2 construct: the large hydrophilic loop region of PS1 (amino acids 1-81, 429-468, 263-407, respectively) were inserted into the pGBT9 vector; expressed in transfected cells; host or cells: yeast Y190

[5] = system: PBP; conditions: PS fragment fused to GAL4-DNA binding domain, PBPα-GAL4 activation domain, β-galactosidase assay
Protocol: The yeast two-hybrid system was used to screen for cytoplasmic proteins that interact with PSs. […] Yeast (Y190) were co-transformed with each of the PS1 constructs and a mouse brain cDNA library fused to the GAL4 activation domain in the pGAD424 vector (Clontech). Transformants were plated on yeast drop-out media (Clontech) contain g 20 mM 3-amino-1,2,4-triazole (3-AT), and after 10 days of incubation at 30° C., colonies were transferred to Nitropure membrane Micron Separation Inc., Westboro, MA), and the X-gal assay was performed.
To determine the minimal sequence of the large hydrophilic loop of PS that is required for the interaction with PBP, three deletion fragments of the loop were inserted into pGBT9 and the interaction with PBP was examined using the yeast two-hybrid system.

[6] = 100 μM, either cells, data not shown

Molecule: CC(C)C[C@@H](C=O)NC(=O)[C@H](CC(C)C)NC(=O)[C@H](CC(C)C)NC(=O)OCc1ccccc1 [MG132] (Cbz-Leu-Leu-Leu-aldehyde)
APP secretion ([1]; 10 μM, APP695/PBP cells): significantly increased
intracellular accumulation of APP ([1]; 10 μM, APP695/PBP cells): significantly increased
secretion of APP in cells expressing PBP ([1]; after 16 hours of treatment): almost restored to the control level

Molecule: CC(=O)N[C@@H](CC(C)C)C(=O)N[C@@H](CC(C)C)C(=O)N[C@H](C=O)CCCNC(=N)N [leupeptin]
APP secretion [1, 6]: no effect
intracellular accumulation of APP [1, 6]: no effect

interaction with PS1 [3]: did not show any interaction
functional interaction with PS1 [4]: nor did it functionally interact
Molecule: Dock 180: protein 40% homologous to PBP, has a SH3 domain and interacts with Crk [reference compound]
secretion of APP [2]: not affected

Molecule: EERGVKLGLGDFIFYSVLVGKA [consensus]
interaction with PBP [5]: exhibit an interaction
